In US8889854B2, “C-17 bicyclic amines of triterpenoids with HIV maturation inhibitory activity” (priority 2012, dated 2014):

Test system: recombinant NL4-3 virus (Renilla luciferase in nef, Gag P373S; NLRluc)
Experiment: HIV Cell Culture Assay (luciferase reporter virus in MT-2 cells)
Assay type: cell-based
Conditions: luciferase activity
Procedure: MT-2 cells and 293T cells were obtained from the NIH AIDS Research and Reference Reagent Program. MT-2 cells were propagated in RPMI 1640 media supplemented with 10% heat inactivated fetal bovine serum, […]. The 293T cells were propagated in DMEM media supplemented with 10% heat inactivated fetal bovine serum (FBS), 100 units/mL penicillin G and 100 μg/mL streptomycin. The proviral DNA clone of NL4-3 was obtained from the NIH AIDS Research and Reference Reagent Program. A recombinant NL4-3 virus, in which a section of the nef gene from NL4-3 was replaced with the Renilla luciferase gene, was used as a reference virus. In addition, residue Gag P373 was converted to P373S. Briefly, the recombinant virus was prepared by transfection of the altered proviral clone of NL4-3. Transfections were performed in 293T cells using LipofectAMINE PLUS from Invitrogen (Carlsbad, Calif.), according to manufacturer's instruction. The virus was titered in MT-2 cells using luciferase enzyme activity as a marker. Luciferase was quantitated using the Dual Luciferase kit from Promega (Madison, Wis.), with modifications to the manufacturer's protocol. The diluted Passive Lysis solution was pre-mixed with the re-suspended Luciferase Assay Reagent and the re-suspended Stop & Glo Substrate (2:1:1 ratio). Fifty (50) μL of the mixture was added to each aspirated well on assay plates and luciferase activity was measured immediately on a Wallac TriLux (Perkin-Elmer). Antiviral activities of inhibitors toward the recombinant virus were quantified by measuring luciferase activity in cells infected for 4-5 days with NLRluc recombinants in the presence serial dilutions of the inhibitor. Table 1 is the key for the data in Table 2.

[1] = Renilla, NL43, MT-2 cells infected for 4-5 days with NLRluc recombinants, reported as group A/B
[2] = Renilla, NL43, MT-2 cells infected for 4-5 days with NLRluc recombinants

**Q.** With `C=C(C)[C@@H]1CC[C@]2(NCCN3C[C@@H]4C[C@H]3CN4S(C)(=O)=O)CC[C@]3(C)[C@H](CC[C@@H]4[C@@]5(C)CC=C(c6ccc(C(=O)O)cc6)C(C)(C)[C@@H]5CC[C@]43C)[C@@H]12` [Example 11, 4-((1R,3aS,5aR,5bR,7aR,11aS,11bR,13aR,13bR)-5a,5b,8,8,11a-pentamethyl-3a-((2-((1S,4S)-5-(methylsulfonyl)-2,5-diazabicyclo[2.2.1]heptan-2-yl)ethyl)amino)-1-(prop-1-en-2-yl)-2,3,3a,4,5,5a,5b,6,7,7a,8,11,11a,11b,12,13,13a,13b-octadecahydro-1H-cyclopenta[a]chrysen-9-yl)benzoic acid] as the molecule, how does the EC50 [1] read?
**A.** < 100 nM

**Q.** How did the EC50 [1] turn out when `CC(C)[C@@H]1CC[C@]2(NC(=O)CN3C[C@@H]4C[C@H]3CS4(=O)=O)CC[C@]3(C)[C@H](CC[C@@H]4[C@@]5(C)CC=C(c6ccc(C(=O)O)cc6)C(C)(C)[C@@H]5CC[C@]43C)[C@@H]12` [Example 4, 4-((1S,3aS,5aR,5bR,7aR,11aS,11bR,13aR,13bR)-3a-(2-((1S,4S)-2,2-dioxido-2-thia-5-azabicyclo[2.2.1]heptan-5-yl)acetamido)-1-isopropyl-5a,5b,8,8,11a-pentamethyl-2,3,3a,4,5,5a,5b,6,7,7a,8,11,11a,11b,12,13,13a,13b-octadecahydro-1H-cyclopenta[a]chrysen-9-yl)benzoic acid] was run?
**A.** < 100 nM

**Q.** `C=C(C)[C@@H]1CC[C@]2(NCCN3C[C@@H]4C[C@H]3CO4)CC[C@]3(C)[C@H](CC[C@@H]4[C@@]5(C)CC=C(C6=CC7C(C6)C7C(=O)O)C(C)(C)[C@@H]5CC[C@]43C)[C@@H]12` (single isomer, unassigned) [Example B7] was tested. Which EC50 (MT-2 cells infected for 4-5 days with NLRluc recombinants) did it give?
**A.** 2.28 nM

**Q.** With `C=C(C)[C@@H]1CC[C@]2(NCCN3CC4(C3)CN(S(C)(=O)=O)C4)CC[C@]3(C)[C@H](CC[C@@H]4[C@@]5(C)CC=C(c6ccc(C(=O)O)cc6)C(C)(C)[C@@H]5CC[C@]43C)[C@@H]12` [Example 16, 4-((1R,3aS,5aR,5bR,7aR,11aS,11bR,13 aR,13bR)-5a,5b,8,8,11a-pentamethyl-3a-((2-(6-(methylsulfonyl)-2,6-diazaspiro[3.3]heptan-2-yl)ethyl)amino)-1-(prop-1-en-2-yl)-2,3,3a,4,5,5a,5b,6,7,7a,8,11,11a,11b,12,13,13a,13b-octadecahydro-1H-cyclopenta[a]chrysen-9-yl)benzoic acid] as the molecule, how does the EC50 [2] read?
**A.** 1.64 nM

**Q.** `C=C(C)[C@@H]1CC[C@]2(NCCN3CC4C(C3)C4NS(C)(=O)=O)CC[C@]3(C)[C@H](CC[C@@H]4[C@@]5(C)CC=C(c6ccc(C(=O)O)cc6)C(C)(C)[C@@H]5CC[C@]43C)[C@@H]12` (stereo partly drawn) [Example 17, 4-((1R,3aS,5aR,5bR,7aR,11aS,11bR,13aR,13bR)-5a,5b,8,8,11a-pentamethyl-3a-((2-(6-(methylsulfonamido)-3-azabicyclo[3.1.0]hexan-3-yl)ethyl)amino)-1-(prop-1-en-2-yl)-2,3,3a,4,5,5a,5b,6,7,7a,8,11,11a,11b,12,13,13a,13b-octadecahydro-1H-cyclopenta[a]chrysen-9-yl)benzoic acid] was tested. Which EC50 [1] did it give?
**A.** < 100 nM

**Q.** Which EC50 [2] does the source give for `C=C(C)[C@@H]1CC[C@]2(NCCN3C4COCC3COC4)CC[C@]3(C)[C@H](CC[C@@H]4[C@@]5(C)CC=C(c6ccc(C(=O)O)cc6)C(C)(C)[C@@H]5CC[C@]43C)[C@@H]12` [Example A3, 4-((1R,3aS,5aR,5bR,7aR,11aS,11bR,13aR,13bR)-3a-((2-((1R,5R)-3,7-dioxa-9-azabicyclo[3.3.1]nonan-9-yl)ethyl)amino)-5a,5b,8,8,11a-pentamethyl-1-(prop-1-en-2-yl)-2,3,3a,4,5,5a,5b,6,7,7a,8,11,11a,11b,12,13,13a,13b-octadecahydro-1H-cyclopenta[a]chrysen-9-yl)benzoic acid] here?
**A.** 83 nM

**Q.** For `C=C(C)[C@@H]1CC[C@]2(NCCN3C[C@@H]4C[C@H]3CS4(=O)=O)CC[C@]3(C)[C@H](CC[C@@H]4[C@@]5(C)CC[C@H](OC(=O)CC(C)(C)C(=O)O)C(C)(C)[C@@H]5CC[C@]43C)[C@@H]12` [Example B12, 4-(((1R,3aS,5aR,5bR,7aR,9S,11aR,11bR,13aR,13bR)-3a-((2-((1S,4S)-2,2-dioxido-2-thia-5-azabicyclo[2.2.1]heptan-5-yl)ethyl)amino)-5a,5b,8,8,11a-pentamethyl-1-(prop-1-en-2-yl)icosahydro-1H-cyclopenta[a]chrysen-9-yl)oxy)-2,2-dimethyl-4-oxobutanoic acid], which EC50 [1] is on record?
**A.** < 100 nM
